Reference: patent publication US10273239B2, “Spiro-lactam NMDA receptor modulators and uses thereof” (Aptinyx Inc., priority 2013, dated 2019)

Tests used:
[1] = molecular target: T1, NMDA receptor (rat cortical membranes) (Rattus norvegicus, UniProt P35439); assay: [3H] MK-801 binding assay (potentiation of [3H]MK-801 binding)
T1 construct: well washed rat cortical membranes (200 μg); from tissue; host or cells: rat cerebral cortex membranes
Method: Assays were conducted as described in Moskal et al. (Moskal, J. R., Kuo, A. G., Weiss, C., Wood, P. L., O'Connor Hanson, A., Kelso, S., Harris, R. B., Disterhoft, J. F., 2005. GLYX-13: a monoclonal antibody-derived peptide that acts as an N-methyl-D-aspartate receptor modulator. Neuropharmacology. 49, 1077-87) The potentiation of [^3H]MK-801 binding (5 nM; 22.5 Ci/mmol) to well washed rat cortical membranes (200 μg) was measured under non-equilibrium conditions (15 min @ 25° C.) in the presence of increasing concentrations of test compounds and 50 μM glutamate. Zero levels were determined in the absence of any glycine ligand and in the presence of 30 μM 5,7 DCKA. Maximal stimulation was measured in the presence of 1 mM glycine, and 50 μM glutamate was present in all samples. The facilitation of [^3H]MK-801 binding by tests compounds was calculated by using a 3 parameter log agonist vs. response equation (Graph pad Prism, USA) and potency (EC50, expressed in pM) and maximal activity (% maximal stimulation) were calculated for the test compound.

LTP = assay: Unified Activity Data: LTP; settings: LTP Concentration 1 uM
[2] = Unified Activity Data: Porsolt; assay type: in vivo; settings: 3 mg/kg, IV, 1 hour post dose

Row | EC50 [1] [nM] | Structure (SMILES) | Unified Activity Data: LTP Augmentation (Percent) (LTP) [%] | Unified Activity Data: Porsolt Floating Time Inhibition (Percent) [2] [%]
1 | 0.0553 | C[C@@H](O)[C@H](NC(=O)OC(C)(C)C)C(=O)N1CCCC12CNC2=O (stereo in doubt) [Compound 4S-FNL-2, tert-butyl (3-hydroxy-1-oxo-1-(1-oxo-2,5-diazaspiro [3.4]octan-5-yl)butan-2-yl)carbamate] |  | 
2 |  | C[C@@H](O)[C@H](N)C(=O)N1CCCC12CNC2=O (stereo partly drawn) [Compound 4S-FNL-1, 5-((2S,3R)-2-amino-3-hydroxybutanoyl)-2,5-diazaspiro [3.4] octan-1-one] | 80 | 70
